In patent US9296698B2, “Amino heteroaryl compounds as beta-secretase modulators and methods of use” (Amgen Inc., priority 2009, dated 2016):
Like-named read-outs stand apart in the source and are kept apart here.

How the values were obtained:
[1] = system: Aβ40 in conditioned medium of cells stably expressing Amyloid Precursor Protein (APP); experiment: In vitro BACE cell-based assay (HEK cell assay), Aβ40 sandwich ELISA
Outline: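 Cells stably expressing APP received 10-point compound dilutions (top 100 μM or 10 μM; 0.1% DMSO) for 24 h. Secreted Aβ40 was quantified by sandwich ELISA (pAb40 capture, biotinylated 6E10 detection, europium time-resolved fluorescence). IC50 was derived from percent inhibition versus concentration.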

[2] = target: BACE 1 (Beta Secretase enzyme) (Homo sapiens, UniProt P56817); experiment: In vitro enzymatic BACE FRET assay; format: biochemical
Outline: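 BACE activity read by FRET: peptide substrate (50 nM) carrying fluorophore and quencher across the cleavage site, incubated one hour in 0.05 M acetate pH 4.2, 10% DMSO final, 100 uM genapol. Tris addition raises pH to neutrality to stop the reaction before fluorescence is read.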

[3] = Homo sapiens, HEK293, 24 h, IC50 range symbols, Table 1, Aβ40, 24 h incubation, read-out: HEK cell assay
[4] = IC50 range symbols, Table 1, read-out: BACE 1 FRET assay
[5] = IC50 range symbols, Table 1, Aβ40, 24 h incubation, read-out: HEK cell assay

Chain of BACE 1 (Beta Secretase enzyme) (P56817 46-501, species assumed): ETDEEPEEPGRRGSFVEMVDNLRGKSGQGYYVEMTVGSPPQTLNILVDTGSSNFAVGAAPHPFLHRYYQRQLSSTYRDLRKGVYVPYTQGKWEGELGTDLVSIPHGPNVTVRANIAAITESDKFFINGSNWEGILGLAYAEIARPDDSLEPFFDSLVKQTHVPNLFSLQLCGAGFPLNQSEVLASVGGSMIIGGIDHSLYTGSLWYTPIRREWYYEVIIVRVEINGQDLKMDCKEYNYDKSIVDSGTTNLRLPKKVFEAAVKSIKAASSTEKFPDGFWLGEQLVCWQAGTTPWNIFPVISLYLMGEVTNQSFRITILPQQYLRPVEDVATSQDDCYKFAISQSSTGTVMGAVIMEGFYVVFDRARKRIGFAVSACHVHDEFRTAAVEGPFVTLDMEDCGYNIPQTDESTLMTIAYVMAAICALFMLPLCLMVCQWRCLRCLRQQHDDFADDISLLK

Cc1ccccc1-c1ccc2nc(N)c(CCC(=O)NCC3CCCCO3)cc2c1 (stereo not shown) [Example 40, 3-(2-amino-6-o-tolylquinolin-3-yl)-N-((tetrahydro-2H-pyran-2-yl)methyl)propanamide]
IC50 [1, 3]: 1 to 5 µM
IC50 [2, 4]: < 0.5 µM

3-(3-amino-7-o-tolylnaphthalen-2-yl)-2-methyl-N-(pyridin-3-ylmethyl)propanamide [Example 69]
IC50 [1, 5]: 0.5 to 1 µM
IC50 [2, 4]: < 0.5 µM

Nc1nc2ccc(-c3cscn3)cc2cc1CCC(=O)NCC1CCCCC1 [Example 2, 3-(2-amino-6-(thiazol-4-yl)quinolin-3-yl)-N-(cyclohexylmethyl)propanamide]
IC50 [1, 3]: > 5 µM
IC50 [2, 4]: 1 to 5 µM

Cc1ccccc1-c1cc2cc(CC(C)C(=O)NCCC(C)(C)C)c(N)nc2cn1 (stereo not shown) [Example 138, 3-(2-amino-6-o-tolyl-1,7-naphthyridin-3-yl)-N-(3,3-dimethylbutyl)-2-methylpropanamide]
IC50 [1, 3]: < 0.5 µM
IC50 [2, 4]: < 0.5 µM
IC50 ([2]; bound stated, read-out: IC50 value in the FRET BACE enzyme assay): < 0.05 µM

Cc1ccccc1-c1ccc2nc(N)c(CCC(=O)NCc3ccnnc3)cc2c1 [Example 139, 3-(2-amino-6-o-tolylquinolin-3-yl)-N-(pyridazin-4-ylmethyl)propanamide]
IC50 [1, 3]: > 5 µM
IC50 [2, 4]: 1 to 5 µM

Cc1ccccc1-c1ccc2nc(N)c(CCC(=O)NC3CCOC(C)(C)C3)cc2c1 (stereo not shown) [Example 163, 3-(2-amino-6-(2-methylphenyl)-3-quinolinyl)-N-(-2,2-dimethyltetrahydro-2H-pyran-4-yl)propanamide]
IC50 [1, 3]: < 0.5 µM
IC50 ([1]; Homo sapiens, HEK293, bound stated in text, read-out: IC50 value in the BACE cell-based in-vitro assay): < 0.1 µM
IC50 [2, 4]: < 0.5 µM

Cc1cccnc1-c1ccc2nc(N)c(CC(C)C(=O)NCCC3(C)CC3)cc2c1 (stereo not shown) [Example 102, 3-(2-amino-6-(3-methylpyridin-2-yl)quinolin-3-yl)-2-methyl-N-(2-(1-methylcyclopropyl)ethyl)propanamide]
IC50 [1, 3]: < 0.5 µM
IC50 [2, 4]: < 0.5 µM

CC(Cc1cc2cc([C@H]3C[C@H]3C)ccc2nc1N)C(=O)NCCC(C)(C)C (stereo partly drawn) [Example 121, 3-(2-amino-6-((1S,2R)-2-methylcyclopropyl)quinolin-3-yl)-N-(3,3-dimethylbutyl)-2-methylpropanamide]
IC50 [1, 3]: > 5 µM
IC50 [2, 4]: 0.5 to 1 µM

CNC(=O)C(C)Cc1cc2cc(-c3ccccc3C(C)=O)ccc2nc1N (stereo not shown) [Example 154, 3-(6-(2-acetylphenyl)-2-aminoquinolin-3-yl)-N,2-dimethylpropanamide]
IC50 [1, 3]: > 5 µM
IC50 [2, 4]: > 5 µM

CCC(Cc1cc2cc(-c3ccccc3C)ccc2nc1N)C(=O)Nc1ccccc1F (stereo not shown) [Example 50, 2-((2-amino-6-o-tolylquinolin-3-yl)methyl)-N-(2-fluorophenyl)butanamide]
IC50 [1, 3]: > 5 µM
IC50 [2, 4]: < 0.5 µM

Cc1ncccc1-c1ccc2nc(N)c(CCC(=O)NCC3CCCCC3)cc2c1 [Example 38, 3-(2-amino-6-(2-methylpyridin-3-yl)quinolin-3-yl)-N-(cyclohexylmethyl)propanamide]
IC50 [1, 3]: > 5 µM
IC50 [2, 4]: 0.5 to 1 µM

3-(2-amino-6-(2-((2-methoxyphenyl)carbonyl)phenyl)-3-quinolinyl)-N-(2,2-dimethyltetrahydro-2H-pyran-4-yl)-2-methylpropanamide [Example 146]
IC50 [1, 5]: < 0.5 µM
IC50 [2, 4]: < 0.5 µM

COc1ccccc1[C@@H](C)NC(=O)[C@H](C)Cc1cc2cc(-c3ccccc3C)ccc2nc1N [Example 74, (R)-3-(2-amino-6-o-tolylquinolin-3-yl)-N-((R)-1-(2-methoxyphenyl)ethyl)-2-methylpropanamide]
IC50 [1, 3]: > 5 µM
IC50 [2, 4]: 1 to 5 µM

Cc1ccccc1-c1ccc2nc(N)c(C[C@@H](C)C(=O)NC3CCOC(C)C3)cc2c1 (stereo partly drawn) [Example 158, (2R)-3-(2-amino-6-o-tolylquinolin-3-yl)-2-methyl-N-(2-methyltetrahydro-2H-pyran-4-yl)propanamide]
IC50 [1, 3]: < 0.5 µM
IC50 [2, 4]: < 0.5 µM

Cc1ccccc1-c1ccc2nc(N)c(CC(C)C(=O)NC3CCCN(C)C3)cc2c1 (stereo not shown) [Example 64, 3-(2-amino-6-o-tolylquinolin-3-yl)-2-methyl-N-(1-methylpiperidin-3-yl)propanamide]
IC50 [1, 3]: < 0.5 µM
IC50 [2, 4]: < 0.5 µM

Cc1ccccc1-c1cc2cc(CC(C)C(=O)NCCC(F)(F)F)c(N)nc2cn1 (stereo not shown) [Example 137, 3-(2-amino-6-o-tolyl-1,7-naphthyridin-3-yl)-2-methyl-N-(3,3,3-trifluoropropyl)propanamide]
IC50 [1, 3]: > 5 µM
IC50 [2, 4]: < 0.5 µM

3-(3-amino-7-o-tolylnaphthalen-2-yl)-N-(pyridin-2-ylmethyl)propanamide [Example 36]
IC50 [1, 5]: 1 to 5 µM
IC50 [2, 4]: < 0.5 µM

Cc1ccccc1-c1ccc2nc(N)c(CC(C)C(=O)N[C@H](C)C3CCCCC3)cc2c1 (stereo partly drawn) [Example 47, 3-(2-amino-6-o-tolylquinolin-3-yl)-N-((R)-1-cyclohexylethyl)-2-methylpropanamide]
IC50 [1, 3]: 1 to 5 µM
IC50 [2, 4]: < 0.5 µM

N-(4-fluoro-4-methylpentan-2-yl)-2-methyl-3-(6-(3-methylpyridin-2-yl)quinolin-3-yl)propanamide [Example 100]
IC50 [1, 5]: 1 to 5 µM
IC50 [2, 4]: 0.5 to 1 µM

CC(Cc1cc2cc(-c3ncccc3Cl)ccc2nc1N)C(=O)NCCC(F)(F)F (stereo not shown) [Example 116, 3-(2-amino-6-(3-chloropyridin-2-yl)quinolin-3-yl)-2-methyl-N-(3,3,3-trifluoropropyl)propanamide]
IC50 [1, 3]: > 5 µM
IC50 [2, 4]: 1 to 5 µM

Cc1ccccc1-c1ccc2nc(N)c(CCC(=O)N3CCC(F)(F)C3)cc2c1 [Example 134, 3-(2-amino-6-o-tolylquinolin-3-yl)-1-(3,3-difluoropyrrolidin-1-yl)propan-1-one]
IC50 [1, 3]: > 5 µM
IC50 [2, 4]: 1 to 5 µM

COc1ccccc1C(C)NC(=O)C(C)Cc1cc2cc(-c3ccccc3C)ccc2nc1N (stereo not shown) [Example 104, 3-(2-amino-6-o-tolylquinolin-3-yl)-N-(1-(2-methoxyphenyl)ethyl)-2-methylpropanamide]
IC50 [1, 3]: 1 to 5 µM
IC50 [2, 4]: < 0.5 µM

CCC1CC1c1ccc2nc(N)c(CC(C)C(=O)NCCC(C)(C)C)cc2c1 (stereo not shown) [Example 120, 3-(2-amino-6-(2-ethylcyclopropyl)quinolin-3-yl)-N-(3,3-dimethylbutyl)-2-methylpropanamide]
IC50 [1, 3]: > 5 µM
IC50 [2, 4]: 0.5 to 1 µM

Cc1ccc(CNC(=O)CCc2cc3cc(-c4ccccc4C)ccc3nc2N)c(F)c1 [Example 68, N-(2-fluoro-4-methylbenzyl)-3-(2-amino-6-o-tolylquinolin-3-yl)propanamide]
IC50 [1, 3]: > 5 µM
IC50 [2, 4]: 1 to 5 µM

CC(Cc1cc2cc(-c3cccc(Cl)c3Cl)ccc2nc1N)C(=O)NC1CCOC(C)(C)C1 (stereo not shown) [Example 159, 3-(2-amino-6-(2,3-dichlorophenyl)quinolin-3-yl)-N-(2,2-dimethyltetrahydro-2H-pyran-4-yl)-2-methylpropanamide]
IC50 [1, 3]: < 0.5 µM
IC50 [2, 4]: < 0.5 µM

CC(Cc1cc2cc(-c3ncccc3CCN3CCCC3)ccc2nc1N)C(=O)NCCC(C)(C)C (stereo not shown) [Example 125, 3-(2-amino-6-(3-(2-(pyrrolidin-1-yl)ethyl)pyridin-2-yl)quinolin-3-yl)-N-(3,3-dimethylbutyl)-2-methylpropanamide]
IC50 [1, 3]: < 0.5 µM
IC50 [2, 4]: < 0.5 µM

Nc1nc2ccc(-c3ccccc3Cl)cc2cc1CCC(=O)NCC1CCCCC1 [Example 3, 3-(2-amino-6-(2-chlorophenyl)quinolin-3-yl)-N-(cyclohexylmethyl)propanamide]
IC50 [1, 3]: 1 to 5 µM
IC50 [2, 4]: < 0.5 µM

3-(3-amino-7-o-tolylnaphthalen-2-yl)-N-(pyridin-3-ylmethyl)propanamide [Example 37]
IC50 [1, 5]: 1 to 5 µM
IC50 [2, 4]: < 0.5 µM
